Measurements as given in patent US7728146B2, “Enzyme inhibitors” (Probiodrug AG, priority 2006, dated 2010).
Counter-ions that a name gives are not always drawn.

How the values were obtained:
[1] = test system: liver cell carcinoma cell line Hep-G2; experiment: Cytotoxicity screening and LD50 determination on Hep-G2 (LDH, CytoTox-One); type: cell-based; conditions: 100 μM; for Cytotox 100 μM (%) HEPG2 / Viability 100 μM (%) HEP-G2: 24 h; for Cytotox 100 μM (%) HEPG2: LDH activity in cell culture media, lysed untreated cells = 100%; for Viability 100 μM (%) HEP-G2: LDH of lysed cells, untreated control = 100%; for Observed cytotox: Hep-G2, observation of the cells
Procedure: Cytotoxicity of the compounds may be screened using the liver cell carcinoma cell line Hep-G2.
After 24 h of cultivation in a 96 well plate (50 000 cells/well) compounds (dissolved in DMSO) are added and cytotoxicity and vitality of the cells are analysed after another 24 h of cultivation using the CytoTox-One Homogenoeous membrane toxicity assay (Promega).
Three concentrations (100 μM, 2 μM, 40 nM) of each compound are analysed in triplicates. The final DMSO concentration was 1%.
For cytotoxicity the LDH activity in the cell culture media after 24 h of incubation are analysed. The untreated control is set to 0% cytotoxicity. For the 100% value LDH activity of lysed untreated cells are analysed.
For viability cell culture media are removed from the cells and all cells are lysed using the lysis buffer. LDH activity is determined and untreated control is set to 100% viability.
For determination of LD50 the liver carcinoma cell line HEP-G2 and the neuroblastoma cell line SY5Y may be used. The effect of 8 serial dilutions of the compounds (highest concentration 1 mM) is investigated as described above.
The cytotoxicity of certain example compounds (in each case prepared by preparative synthesis) was screened using Hep-G2 cells. Compounds were tested in concentrations of 100 μM, 2 μM and 40 nM.

[2] = target: DP9 (Homo sapiens, UniProt Q86TI2); experiment: DP9 assay; type: biochemical; conditions: for Selectivity DP9(IC50)/DPIV(Ki): ratio IC50 DP9 / Ki DP IV
Procedure: (§1) Determination of IC50 values for DPII and DP9 are done similarly as described for DP IV.
For DP9 Gly Pro-AMC is used as substrate in a final concentration of 0.25 mM.

[3] = target: dipeptidyl peptidase (DP IV) (UniProt P27487); experiment: Determination of IC50 against DP IV (hydrolysis of Gly-Pro-pNA); type: biochemical, porcine kidney or recombinant human; conditions: compounds obtained by preparative synthesis
Procedure: Determination of IC50 Against DP IV
Substances are screened for inhibition of dipeptidyl peptidase (DP IV) by their ability to inhibit the hydrolysis of the DP IV specific substrate Glycyl-Prolyl-4-Nitroanilide (Gly-Pro-pNA). All compounds are diluted in DMSO and IC50 will be determined with 11 serial dilutions (1:2) starting with an final concentration of 100 μM. The final DMSO concentration in the assay is 5% (v/v). The method was automated using a Tecan Genesis Freedom liquid handler and a Genius Pro (Tecan) microplate reader.
A stock solution of 0.102 M HEPES is prepared. Ionic strength (I=0.32) is adjusted by KCl and pH (pH 7.6) by KOH.
2.16 mM solution of Gly-Pro-pNA in deionized water is prepared.
All samples are dissolved in DMSO preparing a 10 mM stock solution.
DP IV from porcine kidney (pDP IV) or recombinant human DP IV (rhDP IV) is diluted in HEPES buffer to a final activity of approximately 40-50 μU*ml^−1. The DP IV is stored in a cooling rack (4° C.) on the liquid handler.
The assay may becarried out at room temperature using Freedom liquid handler connected with a Genios Pro microplate reader. Each sample is measured in duplicate. Each sample stock solution is prediluted with DMSO in a ratio of 1:5 in a polypropylen 96-well plate. From this predilution 10 serial (1:2) dilutions in DMSO are prepared. 13.5 μl of the 11 DMSO dilutions and DMSO alone are transferred to the measurement microplate (duplicates) and 86.5 μl water, 100 μl HEPES buffer and 50 μl substrate solution are added to each well. The enzymatic reaction is started by addition of 20 μl enzyme solution to each well, and then the microplate is immediately transferred to the microplate reader.
After short mixing (20 s) the release of 4-Nitroanilin (pNA) is monitored at 405 nm for 30 cycles (approx. 18 min).
Post assay calculations are done by the Magellan (Tecan) and Graphit Software. The linear slopes are calculated for each well and averaged for the duplicates. The residue activities are calculated in relation to a sample containing only solvent instead of inhibitor and expressed in %. Residue activities are plotted against the log of inhibitor concentrations and IC50 is calculated by an 4-parameter fitting ranging from 0 to 100%.

[4] = target: DPII (Homo sapiens, UniProt Q9UHL4); experiment: DPII assay; type: biochemical; conditions: for Selectivity DPII(IC50)/DPIV(Ki): ratio IC50 DPII / Ki DP IV; for IC50: sodium acetate buffer pH 5.5, Gly-Pro-AMC 1 mM
Procedure: as §1
For DPII instead of the HEPES buffer a 0.2 M sodium acetate buffer pH 5.5 is used. As substrate Gly-Pro-AMC is used in a final concentration of 1 mM.

[5] = target: T1, DP IV (Homo sapiens, UniProt P27487); experiment: DP IV inhibition IC50, parallel-synthesis compounds tested directly following synthesis (without purification); type: biochemical; design: IC50 DP4; other: tested directly following parallel synthesis, without purification; compounds of formula (Ib) from parallel synthesis, tested directly following synthesis; conditions: DP IV inhibition; compounds of formula (Ib) from parallel synthesis, tested directly following synthesis (without purification); read-out: IC50
Method in brief: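 Porcine kidney or recombinant human enzyme (~40-50 μU/ml, HEPES buffer) hydrolysing Gly-Pro-pNA at room temperature, with 5% DMSO final; 11-point 1:2 dilutions from 100 μM final, in duplicate. pNA release read at 405 nm over ~18 min; slopes vs solvent control give residual activity, and IC50 comes from a 4-parameter fit.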

[6] = test system: Caco-2 monolayer; experiment: Caco-2 transport assay; type: in vitro ADME, human; conditions: assessment of permeability and transport type
Procedure: (§2) The concentration of compounds in the Caco experiments may be determined from their potency to inhibit recombinant human DP IV.
(§3) Reaction is started by addition of 20 μl rhDP IV and release of pNA was monitored at 405 nm. Samples are analyzed in several dilutions (undiluted, 1:10, 1:[…]). Dilutions are done in the Caco assay buffer. Activity measured with Caco-assay buffer alone is set to 100% and inhibitor concentration is calculated from the dilutions resulting in 20 to 80% inhibition according to the equation for competitive inhibition.
(§4) [formula] • I=inhibitor concentration • v0=velocity of the reaction without inhibitor (Caco assay buffer alone) • vi=velocity of the reaction with inhibitor sample • Ki=Ki-value of the compound • DF=dilution factor of the sample Transport Assay
(§5) The human colon adenocarcinome cell line Caco-2 are grown in 6- or 24-transwell microplates (Costar) for 21 days with MEM-alpha containing 10% FBS and 0.5% Gentamycin (Invitrogen). After 21 days of cultivation integrity of the cell layer are assessed by measurement of the transepitelial electrical resistance.
(§6) Transport measurements are carried out in triplicates at a pH of 7.5. For each compound and direction (apical to basal (a-b), basal to apical (b-a)) two separate experiments are done. Samples are collected from the donor and acceptor compartments at the beginning of the experiment and after 60 min (for 6-well plates, Donor at 0 and 120 min, Acceptor at 15, 30, 60 and 120 min).
(§7) Samples are analyzed in several dilutions for their ability to inhibit human recombinant DP IV and compound concentrations may be calculated using the prior determined Ki-value (see above).
(§8) The permeability coefficient Papp is calculated according to the following equation:
(§9) [formula] • VA=Volume of the acceptor compartment • A=Area of the transwell membrane • t=sampling time • cAt=concentration in the acceptor compartment at sampling time • CDO=concentration in the donor compartment at t=0
(§10) Papp-values>1e-5 cm/s are assessed as good permeable, value<1e-6 cm/s as not permeable. Papp-values in between as medium permeable. Compounds where no significant difference were found between a-b and b-a transport are assessed to be passive transported.

[7] = Caco-2 transport assay; type: in vitro ADME, human; conditions: human, Caco-2, pH 7.5; for Papp A→B: apical to basal; for Papp B→A: basal to apical
Procedure: as §2, §3, §4, §5, §6, §7, §8, §9, §10

[8] = target: T1, DP IV; experiment: Ki and inhibition type, DP IV; type: biochemical; conditions: compounds obtained by preparative synthesis
Procedure: Measurement of DP IV activities for Ki determination is carried out as described for IC50. For Ki determination samples were analysed in triplicates. 7 serial dilutions of the inhibitor (range calculated from the IC50 determination) in water are analyzed with 4 serial dilutions of the substrate.
Data are analysed by non-linear regression to the inhibitor equations using Graphit software. Ki-value and inhibition type are determined using the inhibitor equation (competitive, partiell competitive, non-competitive) which gives the best fitting results. […]

[9] = test system: male Sprague Dawley rats; experiment: Circadian courses of activity, feeding and drinking behaviour; body weight, food and fluid consumption during chronic administration; type: in vivo, rat; conditions: vs vehicle
Procedure: Example 130b as hydrochloride salt was dissolved in tap water in concentrations of 0.03, 0.1 and 0.3 mg/ml. Assuming a daily fluid intake of approx. 30 ml per animal (animal's weight: approx. 300 g), these concentrations should result in doses of approx. 3, 10 and 30 mg/kg/day. The solutions were prepared freshly every day. During chronic administration, solution offer was limited to 40 ml per day for each animal.
Imipramine was dissolved 0.5% Natrosol and administered once daily i.p. for 8 days (test group TG 11, see below) with a dose of 15 mg/kg/day in a volume of 1 ml/kg.
216 male Sprague Dawley rats. The animals were 6 weeks old at the start of the study. They were housed in groups of 4 animals (“acute animals”) or in single cages (“chronic animals”) at 12 h/12 h light/dark (start of the light phase at 2 a.m.), 20° C., 60% rH. Animals were provided by Elevage Janvier, France.
During the 7 days lasting period of chronic compound administration, animals were kept singly. On the first day they were kept in single Macrolon home cages. On the next day they were transferred to activity monitoring cages and kept there for 3 days. For the following 3 days they returned to their home cages (single housing).
Animals received the test compound chronically via the drinking fluid. The reference compound Imipramine was given i.p. (one administration per day, one hour before the respective tests). Fluid supply was restricted to 40 ml per day for all test groups. On the first day of chronic test compound exposure, animals were kept singly in standard single home cages to enable an individual assessment of test compound intake. On the second day, animals were transferred to infrared monitoring cages for 3 days. Food and fluid offer were the same as in the home cage. Measuring rearing activity near fluid bottles and food grid enabled an assessment of the time structure of food and water (compound) consumption. Behavioural observation started one hour before the beginning of the dark phase (2 p.m.). After 22 hours, body weight, food and fluid consumption were measured. 2 hours later, the next recording started.
Raw data were provided as computer files accompanied by written protocol sheets. As the animals were still adapting to the environment and administration the time courses of the following parameters were calculated only for the last day of registration: • Food and fluid intake (time %) • Number of feeding and […] bouts • Meal pattern parameters reflecting e.g. the duration and recurrence of feeding and drinking bouts • Total distance travelled (cm/min) • Small movements (cm/min) • Distance travelled with rapid locomotion (cm/min) • Distance travelled with slow locomotion (cm/min) • Immobility (time %) • Use of available space (%) • Locomotor stereotypies (score, first hour of the dark phase only) • Rearing (time %) • Number of rearing acts (N) Feeding and Drinking Bouts and Bout-Related Analysis:
On the basis of high-resolution infrared beam recordings, feeding and drinking is identified by means of beam interruption in the upper frame near to the positions of food or water. Feeding or drinking acts are then defined as temporally contingent behavioural pattern separated from each other by intervals not longer than 0.5 seconds. Normally, several acts form a feeding or drinking bout. The intervals within a bout are definitely shorter than between subsequent bouts. A threshold interval can be set to distinguish between intra-bout and inter-bout intervals.
Stereotyped locomotion was assessed by means of statistical comparisons between the observed locomotor sequences (as described by the movement from one of the 4×4 subsquares to another) and a “random walk”. The comparison is performed at 5 different levels:
The coefficient of locomotor stereotypies (SC, in %) at each level has a value of SC=0 when there are no regularities within the movement pattern (random walk). […]

[10] = circadian registration, Imipramine 15 mg/kg/day i.p., Example 130b approx. 3, 10, 30 mg/kg/day
[11] = Imipramine 15 mg/kg/day i.p., Example 130b hydrochloride approx. 3, 10, 30 mg/kg/day via drinking fluid

Sequence of DP9 (Q86TI2 whole entry, species assumed): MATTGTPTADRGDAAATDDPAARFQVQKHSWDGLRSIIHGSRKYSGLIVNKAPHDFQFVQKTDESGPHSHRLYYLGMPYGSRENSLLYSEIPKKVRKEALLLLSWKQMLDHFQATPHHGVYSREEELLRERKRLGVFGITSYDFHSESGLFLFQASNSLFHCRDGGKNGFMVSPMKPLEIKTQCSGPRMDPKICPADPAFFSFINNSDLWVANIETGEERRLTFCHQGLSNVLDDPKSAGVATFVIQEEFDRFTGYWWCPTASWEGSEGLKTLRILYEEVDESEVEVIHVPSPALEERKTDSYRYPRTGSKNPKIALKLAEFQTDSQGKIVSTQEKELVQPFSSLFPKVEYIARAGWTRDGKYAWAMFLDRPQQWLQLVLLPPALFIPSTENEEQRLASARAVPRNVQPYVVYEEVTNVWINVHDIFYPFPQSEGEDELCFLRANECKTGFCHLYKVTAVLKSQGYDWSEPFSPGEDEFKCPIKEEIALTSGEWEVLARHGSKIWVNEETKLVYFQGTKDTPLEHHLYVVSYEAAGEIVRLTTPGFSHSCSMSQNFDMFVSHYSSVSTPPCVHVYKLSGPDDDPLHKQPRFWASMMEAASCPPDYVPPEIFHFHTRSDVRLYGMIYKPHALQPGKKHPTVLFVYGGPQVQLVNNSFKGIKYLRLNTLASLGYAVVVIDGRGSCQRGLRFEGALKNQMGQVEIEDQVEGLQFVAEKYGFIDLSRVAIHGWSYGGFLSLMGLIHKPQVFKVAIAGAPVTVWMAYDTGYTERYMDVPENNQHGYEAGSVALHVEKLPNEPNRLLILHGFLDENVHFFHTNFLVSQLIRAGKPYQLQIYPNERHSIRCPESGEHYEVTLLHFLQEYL
T1 sequence (P27487 whole entry): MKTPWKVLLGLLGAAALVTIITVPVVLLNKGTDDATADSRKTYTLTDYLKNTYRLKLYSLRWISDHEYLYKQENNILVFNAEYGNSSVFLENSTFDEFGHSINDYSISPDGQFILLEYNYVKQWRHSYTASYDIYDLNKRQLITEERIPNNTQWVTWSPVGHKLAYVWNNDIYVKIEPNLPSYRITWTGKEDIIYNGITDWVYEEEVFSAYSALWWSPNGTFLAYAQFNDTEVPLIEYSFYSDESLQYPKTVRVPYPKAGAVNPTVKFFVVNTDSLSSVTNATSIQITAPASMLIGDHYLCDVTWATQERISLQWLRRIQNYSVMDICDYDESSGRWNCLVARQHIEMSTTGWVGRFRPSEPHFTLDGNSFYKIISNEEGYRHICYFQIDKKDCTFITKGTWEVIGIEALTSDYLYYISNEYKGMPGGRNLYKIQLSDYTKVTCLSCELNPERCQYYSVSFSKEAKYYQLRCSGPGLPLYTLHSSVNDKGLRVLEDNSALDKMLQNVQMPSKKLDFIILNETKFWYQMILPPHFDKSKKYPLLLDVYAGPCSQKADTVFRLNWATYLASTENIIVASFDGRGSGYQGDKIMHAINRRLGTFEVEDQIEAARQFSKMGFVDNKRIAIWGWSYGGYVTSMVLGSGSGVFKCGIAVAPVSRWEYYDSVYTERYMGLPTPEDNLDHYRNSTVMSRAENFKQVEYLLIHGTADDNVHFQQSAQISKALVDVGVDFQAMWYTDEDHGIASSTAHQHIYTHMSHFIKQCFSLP

With `COc1cccc(Cn2cnc(-c3ccc(Cl)cc3Cl)c2CN)c1` [Example 59b, C-[5-(2,4-dichloro-phenyl)-3-(3-methoxy-benzyl)-3H-imidazol-4-yl]-methylamine] the “Cytotox 100 μM (%) HEPG2” value [1] was 1.2%, the “Viability 100 μM (%) HEP-G2” value [1] was 116.3% and the Observed cytotox [1] was 10% spheric. The “Selectivity DP9(IC50)/DPIV(Ki)” value [2] was 7,974, the IC50 [3] was 221 nM and the “Selectivity DPII(IC50)/DPIV(Ki)” value [4] was 2,542. For the same compound, the IC50 [4] was 38900 nM, the IC50 [5] was 3700 nM and the Transport [6] was “good, passive”. The Papp A→B [7] was 49.7 ×10⁻⁶ cm/s, the Papp B→A [7] was 38.3 ×10⁻⁶ cm/s and the Ki [8] was 15.3 nM.
In the case of `NCc1c(-c2ccc(Cl)cc2Cl)ncn1C(CO)c1ccccc1` (stereo not shown) [Example 126b, 2-[5-aminomethyl-4-(2,4-dichloro-phenyl)-imidazol-1-yl]-2-phenyl-ethanol], the “Cytotox 100 μM (%) HEPG2” value [1] is reported as 5.8%, the “Viability 100 μM (%) HEP-G2” value [1] is reported as 118.8% and the Observed cytotox [1] is reported as 10% spheric. For the same compound, the IC50 ([2]; Gly Pro-AMC 0.25 mM) was 70700 nM, the “Selectivity DP9(IC50)/DPIV(Ki)” value [2] was 6,670 and the IC50 [3] was 145 nM. The “Selectivity DPII(IC50)/DPIV(Ki)” value [4] was 1,887, the IC50 [4] was 20000 nM and the Transport [6] was “good (Papp-values>1e-5 cm/s are assessed as good permeable)”. For the same compound, the Papp A→B [7] was 22.5 ×10⁻⁶ cm/s, the Papp B→A [7] was 16.5 ×10⁻⁶ cm/s and the Ki [8] was 10.6 nM.
For `CN(C)CCCN1c2ccccc2CCc2ccccc21` [Imipramine, Imipramine Hydrochloride, reference compound], the time immobile ([9]; circadian registration, Imipramine 15 mg/kg/day i.p.) was “spent more time immobile”, the “horizontal and vertical (locomotor) activity” value [9, 10] was “clearly reduced” and the “time accessing food and water (fluid)” value [9, 10] was “lower amount of time”. The “locomotor stereotypies (stereotypy index)” value ([9]; first hour of the dark phase, Imipramine: level 2, 3 and 4 stereotypies, Example 130b: usage of available space or stereotypy index) was “reduction”, the “body weight (gain)” value [9, 11] was “significantly reduced” and the fluid intake [9, 11] was “significantly reduced”. The food intake [9, 11] was “significantly reduced”.
